Laboratory results from ChEMBL document CHEMBL5252589, “Bioactive Piperazic Acid-Bearing Cyclodepsipeptides, Lydiamycins E-H, from an Endophytic Streptomyces sp. Associated with Cinnamomum cassia” (J Nat Prod, 2023).
≈ marks a conversion by molar mass, not a printed value. Calls of active or inactive are those of the source. No cut-off for these calls is given here.

Tests used:
PANC-1 [1] = assay: Antimetastatic activity in human PANC-1 cells assessed as suppression of cell migration incubated for 24 to 48 hrs by inverted microscope based scratch wound healing assay; format: functional; conditions: dose 40-80 µM, time 24-48 hrs
PANC-1 [2] = assay: Antimetastatic activity in human PANC-1 cells assessed as suppression of cell invasion at 40 to 80 uM incubated for 24 hrs by crystal violet staining based transwell assay; format: functional; conditions: dose 40-80 µM
[3] = system: Mycobacterium tuberculosis; assay: Antibacterial activity against Mycobacterium tuberculosis H37Rv ATCC 27294 assessed as inhibition of bacterial growth; format: functional
PANC-1 [4] = assay: Cytotoxicity against human PANC-1 cells assessed as inhibition of cell growth incubated for 72 hrs by MTT assay; format: functional, cell-based; conditions: PANC-1, 72 h
PANC-1 [5] = assay: Antimetastatic activity in human PANC-1 cells assessed as inhibition of cell migration at 40 uM incubated for 24 hrs by inverted microscope based scratch wound healing assay relative to control; format: functional
PANC-1 [6] = assay: Antimetastatic activity in human PANC-1 cells assessed as inhibition of cell migration at 80 uM incubated for 24 hrs by inverted microscope based scratch wound healing assay relative to control; format: functional
PANC-1 [7] = assay: Antimetastatic activity in human PANC-1 cells assessed as inhibition of cell migration at 80 uM incubated for 48 hrs by inverted microscope based scratch wound healing assay relative to control; format: functional
PANC-1 [8] = assay: Antimetastatic activity in human PANC-1 cells assessed as inhibition of cell migration at 40 uM incubated for 48 hrs by inverted microscope based scratch wound healing assay relative to control; format: functional
[9] = system: Mycobacterium tuberculosis; assay: Antibacterial activity against Mycobacterium tuberculosis mc2 6230; format: functional
[10] = system: Mycobacterium tuberculosis; assay: Antibacterial activity against Mycobacterium tuberculosis H37Rv; format: functional

| SMILES | Activity (PANC-1 [1]) | Activity (PANC-1 [2]) | MIC [3] | IC50 (PANC-1 [4]) | inhibition at 40 µM (PANC-1 [5]) | inhibition at 80 µM (PANC-1 [6]) | inhibition at 80 µM (PANC-1 [7]) | inhibition at 40 µM (PANC-1 [8]) | MIC50 [9] | MIC50 [10] |
| --- | --- | --- | --- | --- | --- | --- | --- | --- | --- | --- |
| CCCC[C@H](CC(=O)N1N=CCC[C@H]1C(=O)N[C@H]1COC(=O)[C@@H]2CCCNN2C(=O)[C@H](C)NC(=O)[C@@H](CC(C)C)NC1=O)C(=O)O | Dose-Dependent Effect | Active | > 20 µg/mL | > 100 µM | – | – | – | – | – | – |
| CCCCC[C@H](CC(=O)N1N=C[C@H](O)C[C@H]1C(=O)N[C@H]1COC(=O)[C@@H]2CCCNN2C(=O)[C@H](C)NC(=O)[C@@H](CC(C)C)NC1=O)C(=O)O | – | Active | > 20 µg/mL | > 100 µM | 11% | 19% | 26% | 11% | – | – |
| CC(C)C[C@H]1NC(=O)[C@@H](NC(=O)[C@@H]2CCC=NN2C(=O)CCC(=O)O)COC(=O)[C@@H]2CCCNN2C(=O)[C@H](C)NC1=O | Dose-Dependent Effect | Active | > 20 µg/mL | > 100 µM | – | – | – | – | – | – |
| CCCCC[C@H](CC(=O)N1N=CCC[C@H]1C(=O)N[C@H]1COC(=O)[C@@H]2CCCNN2C(=O)[C@H](C)NC(=O)[C@@H](CC(C)C)NC1=O)C(=O)O | – | Active | > 20 µg/mL | > 100 µM | 36% | 45% | 49% | 11% | 31 µg/mL (≈ 46.7 µM) | 12.5 µg/mL (≈ 18.8 µM) |
| CC(C)C[C@H]1NC(=O)[C@@H](NC(=O)[C@@H]2CCC=NN2)COC(=O)[C@@H]2CCCNN2C(=O)[C@H](C)NC1=O | Dose-Dependent Effect | Active | > 20 µg/mL | > 100 µM | – | – | – | – | – | – |
